The record followed here is the NIST ThermoML archive (doi:10.1021/je4001894).

This series is described as follows: activity coefficient (dimensionless); of the first substance listed, at infinite dilution; xn = mol fraction of the nth substance listed. The following applies: 101 kPa, Liquid, Chromatography, x1 = 0.

± gives the expanded uncertainty stated by the source.

Take `Cc1ccccc1C` [1,2-dimethylbenzene] + CCCC[N+]1(C)CCCC1.O=S(=O)([N-]S(=O)(=O)C(F)(F)F)C(F)(F)F: the activity coefficient (323.15 K) stood at 1.61 ± 0.11, the activity coefficient (333.15 K) came to 1.64 ± 0.11 and the activity coefficient (343.15 K) is 1.66 ± 0.11.

As for `Cc1ccccc1C` [1,2-dimethylbenzene] + CCC[N+]1(C)CCCC1.O=S(=O)([N-]S(=O)(=O)C(F)(F)F)C(F)(F)F, the activity coefficient is, setting by setting: (323.15 K) 1.78 ± 0.12; (333.15 K) 1.83 ± 0.12; (343.15 K) 1.87 ± 0.13.

Take `Cc1cccc(C)c1` [1,3-dimethylbenzene] + CCCC[N+]1(C)CCCC1.O=S(=O)([N-]S(=O)(=O)C(F)(F)F)C(F)(F)F: the activity coefficient is, setting by setting: (323.15 K) 1.78 ± 0.12; (333.15 K) 1.8 ± 0.12; (343.15 K) 1.83 ± 0.12.

For the compound `Cc1cccc(C)c1` [1,3-dimethylbenzene] + CCC[N+]1(C)CCCC1.O=S(=O)([N-]S(=O)(=O)C(F)(F)F)C(F)(F)F, the activity coefficient reads like this: (323.15 K) 1.97 ± 0.13; (333.15 K) 1.99 ± 0.14; (343.15 K) 2.05 ± 0.14.

Turning to `Cc1ccc(C)cc1` [1,4-dimethylbenzene] + CCCC[N+]1(C)CCCC1.O=S(=O)([N-]S(=O)(=O)C(F)(F)F)C(F)(F)F, the activity coefficient by setting is: (323.15 K) 1.78 ± 0.12; (333.15 K) 1.8 ± 0.12; (343.15 K) 1.81 ± 0.12.

`Cc1ccc(C)cc1` [1,4-dimethylbenzene] + CCC[N+]1(C)CCCC1.O=S(=O)([N-]S(=O)(=O)C(F)(F)F)C(F)(F)F: the activity coefficient runs as follows: (323.15 K) 1.96 ± 0.13; (333.15 K) 2 ± 0.14; (343.15 K) 2.03 ± 0.14.

Turning to `C1COCCO1` [1,4-dioxane] + CCCC[N+]1(C)CCCC1.O=S(=O)([N-]S(=O)(=O)C(F)(F)F)C(F)(F)F, the activity coefficient by setting is: (323.15 K) 0.71 ± 0.05; (333.15 K) 0.72 ± 0.05; (343.15 K) 0.72 ± 0.05.

On to `C1COCCO1` [1,4-dioxane] + CCC[N+]1(C)CCCC1.O=S(=O)([N-]S(=O)(=O)C(F)(F)F)C(F)(F)F, for which the activity coefficient runs as follows: (323.15 K) 0.74 ± 0.05; (333.15 K) 0.74 ± 0.05; (343.15 K) 0.76 ± 0.05.

Consider `C#CCCCCC` [1-heptyne] + CCCC[N+]1(C)CCCC1.O=S(=O)([N-]S(=O)(=O)C(F)(F)F)C(F)(F)F, for which the activity coefficient by setting is: (323.15 K) 3.98 ± 0.27; (333.15 K) 3.98 ± 0.27; (343.15 K) 3.94 ± 0.27.

Regarding `C#CCCCCC` [1-heptyne] + CCC[N+]1(C)CCCC1.O=S(=O)([N-]S(=O)(=O)C(F)(F)F)C(F)(F)F, the activity coefficient is 4.52 ± 0.31 (323.15 K), 4.52 ± 0.31 (333.15 K) and 4.51 ± 0.31 (343.15 K).

In the case of `C#CCCCC` [1-hexyne] + CCCC[N+]1(C)CCCC1.O=S(=O)([N-]S(=O)(=O)C(F)(F)F)C(F)(F)F, the activity coefficient came out at 2.89 ± 0.2 (323.15 K), 2.87 ± 0.2 (333.15 K) and 2.83 ± 0.19 (343.15 K).

In the case of `C#CCCCC` [1-hexyne] + CCC[N+]1(C)CCCC1.O=S(=O)([N-]S(=O)(=O)C(F)(F)F)C(F)(F)F, the activity coefficient reads like this: (323.15 K) 3.35 ± 0.23; (333.15 K) 3.18 ± 0.22; (343.15 K) 3.01 ± 0.2.

On to `CCC[N+](=O)[O-]` [1-nitropropane] + CCCC[N+]1(C)CCCC1.O=S(=O)([N-]S(=O)(=O)C(F)(F)F)C(F)(F)F, for which the activity coefficient runs as follows: (323.15 K) 0.74 ± 0.05; (333.15 K) 0.73 ± 0.05; (343.15 K) 0.73 ± 0.05.

Consider `CCC[N+](=O)[O-]` [1-nitropropane] + CCC[N+]1(C)CCCC1.O=S(=O)([N-]S(=O)(=O)C(F)(F)F)C(F)(F)F, for which the activity coefficient (323.15 K) was found to be 0.77 ± 0.05, the activity coefficient (333.15 K) came to 0.77 ± 0.05 and the activity coefficient (343.15 K) was 0.77 ± 0.05.

For the compound `CC(C)CC(C)(C)C` [2,2,4-trimethylpentane] + CCCC[N+]1(C)CCCC1.O=S(=O)([N-]S(=O)(=O)C(F)(F)F)C(F)(F)F, the activity coefficient reads like this: (323.15 K) 19.2 ± 1.3; (333.15 K) 17.9 ± 1.2; (343.15 K) 17.1 ± 1.2.

For the compound `CC(C)CC(C)(C)C` [2,2,4-trimethylpentane] + CCC[N+]1(C)CCCC1.O=S(=O)([N-]S(=O)(=O)C(F)(F)F)C(F)(F)F, the activity coefficient was found to be 22.5 ± 1.5 (323.15 K), 22 ± 1.5 (333.15 K) and 21.6 ± 1.5 (343.15 K).

As to `CC(C)CO` [2-methyl-1-propanol] + CCCC[N+]1(C)CCCC1.O=S(=O)([N-]S(=O)(=O)C(F)(F)F)C(F)(F)F, the activity coefficient is, setting by setting: (323.15 K) 2.37 ± 0.16; (333.15 K) 2.12 ± 0.14; (343.15 K) 1.92 ± 0.13.

Turning to `CC(C)CO` [2-methyl-1-propanol] + CCC[N+]1(C)CCCC1.O=S(=O)([N-]S(=O)(=O)C(F)(F)F)C(F)(F)F, the activity coefficient (323.15 K) was determined as 2.51 ± 0.17, the activity coefficient (333.15 K) was 2.29 ± 0.16 and the activity coefficient (343.15 K) worked out at 2.1 ± 0.14.

As for `CCC(C)CC` [3-methylpentane] + CCCC[N+]1(C)CCCC1.O=S(=O)([N-]S(=O)(=O)C(F)(F)F)C(F)(F)F, the activity coefficient came to 12.3 ± 0.84 (323.15 K), 11.9 ± 0.81 (333.15 K) and 11 ± 0.75 (343.15 K).

Turning to `CCC(C)CC` [3-methylpentane] + CCC[N+]1(C)CCCC1.O=S(=O)([N-]S(=O)(=O)C(F)(F)F)C(F)(F)F, the activity coefficient by setting is: (323.15 K) 14.3 ± 0.98; (333.15 K) 13.5 ± 0.92; (343.15 K) 11.7 ± 0.8.

On to `CC#N` [acetonitrile] + CCCC[N+]1(C)CCCC1.O=S(=O)([N-]S(=O)(=O)C(F)(F)F)C(F)(F)F, for which the activity coefficient was found to be 0.52 ± 0.04 (323.15 K), 0.51 ± 0.04 (333.15 K) and 0.5 ± 0.04 (343.15 K).

With `c1ccccc1` [benzene] + CCCC[N+]1(C)CCCC1.O=S(=O)([N-]S(=O)(=O)C(F)(F)F)C(F)(F)F, the activity coefficient by setting is: (323.15 K) 0.92 ± 0.06; (333.15 K) 0.93 ± 0.06; (343.15 K) 0.94 ± 0.06.

`c1ccccc1` [benzene] + CCC[N+]1(C)CCCC1.O=S(=O)([N-]S(=O)(=O)C(F)(F)F)C(F)(F)F: the activity coefficient (323.15 K) came to 0.99 ± 0.06, the activity coefficient (333.15 K) worked out at 1.01 ± 0.06 and the activity coefficient (343.15 K) stood at 1.03 ± 0.06.

Turning to `CCCCO` [butan-1-ol] + CCCC[N+]1(C)CCCC1.O=S(=O)([N-]S(=O)(=O)C(F)(F)F)C(F)(F)F, the activity coefficient by setting is: (323.15 K) 2.59 ± 0.18; (333.15 K) 2.32 ± 0.16; (343.15 K) 2.08 ± 0.14.

For `CCCCO` [butan-1-ol] + CCC[N+]1(C)CCCC1.O=S(=O)([N-]S(=O)(=O)C(F)(F)F)C(F)(F)F, the activity coefficient (323.15 K) was found to be 2.79 ± 0.19, the activity coefficient (333.15 K) is 2.35 ± 0.16 and the activity coefficient (343.15 K) was determined as 2.27 ± 0.15.

In the case of `CCC(C)=O` [butanone] + CCCC[N+]1(C)CCCC1.O=S(=O)([N-]S(=O)(=O)C(F)(F)F)C(F)(F)F, the activity coefficient by setting is: (323.15 K) 0.54 ± 0.04; (333.15 K) 0.5 ± 0.04; (343.15 K) 0.46 ± 0.04.

Take `CCC(C)=O` [butanone] + CCC[N+]1(C)CCCC1.O=S(=O)([N-]S(=O)(=O)C(F)(F)F)C(F)(F)F: the activity coefficient runs as follows: (323.15 K) 0.57 ± 0.04; (333.15 K) 0.58 ± 0.04; (343.15 K) 0.64 ± 0.04.

With `C1CCCCCC1` [cycloheptane] + CCCC[N+]1(C)CCCC1.O=S(=O)([N-]S(=O)(=O)C(F)(F)F)C(F)(F)F, the activity coefficient turned out to be 23.9 ± 1.6 (323.15 K), 32 ± 2.2 (333.15 K) and 41.7 ± 2.9 (343.15 K).

As for `C1CCCCCC1` [cycloheptane] + CCC[N+]1(C)CCCC1.O=S(=O)([N-]S(=O)(=O)C(F)(F)F)C(F)(F)F, the activity coefficient by setting is: (323.15 K) 29.1 ± 2; (333.15 K) 43 ± 2.9; (343.15 K) 54.7 ± 3.8.

As for `C1CCCCC1` [cyclohexane] + CCCC[N+]1(C)CCCC1.O=S(=O)([N-]S(=O)(=O)C(F)(F)F)C(F)(F)F, the activity coefficient is, setting by setting: (323.15 K) 8.74 ± 0.6; (333.15 K) 7.96 ± 0.54; (343.15 K) 7.59 ± 0.52.

As to `C1CCCCC1` [cyclohexane] + CCC[N+]1(C)CCCC1.O=S(=O)([N-]S(=O)(=O)C(F)(F)F)C(F)(F)F, the activity coefficient is, setting by setting: (323.15 K) 10.2 ± 0.7; (333.15 K) 9.53 ± 0.65; (343.15 K) 8.53 ± 0.58.

As to `CCCCCCCCCC` [decane] + CCCC[N+]1(C)CCCC1.O=S(=O)([N-]S(=O)(=O)C(F)(F)F)C(F)(F)F, the activity coefficient was 54.3 ± 3.7 (323.15 K), 49 ± 3.4 (333.15 K) and 44.2 ± 3 (343.15 K).

Regarding `CCCCCCCCCC` [decane] + CCC[N+]1(C)CCCC1.O=S(=O)([N-]S(=O)(=O)C(F)(F)F)C(F)(F)F, the activity coefficient is, setting by setting: (323.15 K) 74.7 ± 5.1; (333.15 K) 65.7 ± 4.5; (343.15 K) 60 ± 4.1.

For `ClCCl` [dichloromethane] + CCCC[N+]1(C)CCCC1.O=S(=O)([N-]S(=O)(=O)C(F)(F)F)C(F)(F)F, the activity coefficient reads like this: (323.15 K) 0.66 ± 0.05; (333.15 K) 0.7 ± 0.05; (343.15 K) 0.73 ± 0.05.

Regarding `ClCCl` [dichloromethane] + CCC[N+]1(C)CCCC1.O=S(=O)([N-]S(=O)(=O)C(F)(F)F)C(F)(F)F, the activity coefficient was 0.66 ± 0.05 (323.15 K), 0.72 ± 0.05 (333.15 K) and 0.78 ± 0.05 (343.15 K).

For `CCOCC` [diethyl ether] + CCCC[N+]1(C)CCCC1.O=S(=O)([N-]S(=O)(=O)C(F)(F)F)C(F)(F)F, the activity coefficient by setting is: (323.15 K) 2.53 ± 0.17; (333.15 K) 2.54 ± 0.17; (343.15 K) 2.6 ± 0.18.

Regarding `CCOCC` [diethyl ether] + CCC[N+]1(C)CCCC1.O=S(=O)([N-]S(=O)(=O)C(F)(F)F)C(F)(F)F, the activity coefficient by setting is: (323.15 K) 2.62 ± 0.18; (333.15 K) 2.7 ± 0.18; (343.15 K) 2.75 ± 0.19.

`CC(C)OC(C)C` [diisopropyl ether] + CCCC[N+]1(C)CCCC1.O=S(=O)([N-]S(=O)(=O)C(F)(F)F)C(F)(F)F: the activity coefficient came out at 5.19 ± 0.35 (323.15 K), 5.28 ± 0.36 (333.15 K) and 5.4 ± 0.37 (343.15 K).

Regarding `CC(C)OC(C)C` [diisopropyl ether] + CCC[N+]1(C)CCCC1.O=S(=O)([N-]S(=O)(=O)C(F)(F)F)C(F)(F)F, the activity coefficient was 5.88 ± 0.4 (323.15 K), 5.75 ± 0.39 (333.15 K) and 5.53 ± 0.38 (343.15 K).
